Laboratory results from PubChem BioAssay (NCI).
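Compound exposure: 48 hours, 5 concentrations, 96-well plates. The concentration for 50% growth inhibition is given as GI50. TGI is the concentration that stops growth completely.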

Columns and labels:
Test in all cases: NCI tumour cell line growth inhibition, 48 h
[1] = tested on: SK-MEL-2 melanoma
[2] = tested on: MALME-3M melanoma
[3] = tested on: HOP-92 NSCLC
[4] = tested on: NCI-H226 lung
[5] = tested on: SF-539 CNS
[6] = tested on: M14 melanoma
[7] = tested on: OVCAR-8 ovarian
[8] = tested on: UACC-62 melanoma

Structure (SMILES): c1ccc(OCc2nnc3n2N=C(c2ccccc2)CS3)cc1
- TGI [1]: > 100 µM
- TGI [2]: > 100 µM
- TGI [3]: > 100 µM
- TGI [4]: > 100 µM
- TGI [5]: > 100 µM
- TGI [6]: > 100 µM
- TGI [7]: > 100 µM
- TGI [8]: > 100 µM

Structure (SMILES): COc1cccc(SSc2cccc(OC)c2C(=O)O)c1C(=O)O
- TGI [1]: > 100 µM
- TGI [2]: > 100 µM
- TGI [3]: > 100 µM
- TGI [4]: > 100 µM
- TGI [5]: > 100 µM
- TGI [6]: > 100 µM
- TGI [7]: > 100 µM
- TGI [8]: > 100 µM

Structure (SMILES): COc1cc2ccnc3c(=C(SC)SC)c(=O)c(c1OC)c23
- TGI [1]: 38.3 µM
- TGI [2]: 24.7 µM
- TGI [3]: 21.2 µM
- TGI [5]: 33 µM
- TGI [6]: 28.3 µM
- TGI [7]: 22.7 µM
- TGI [8]: 37.9 µM

Structure (SMILES): Cc1c2c(c(C)c3c1[nH]c1ccccc13)CN(C)CC2
- TGI [1]: 31.1 µM
- TGI [2]: 30.3 µM
- TGI [3]: 57.5 µM
- TGI [4]: 56.5 µM
- TGI [5]: 27.6 µM
- TGI [6]: 28.4 µM
- TGI [7]: 37.7 µM
- TGI [8]: 31.9 µM

Structure (SMILES): OCCN(CCO)c1cccc(N(CCO)CCO)n1
- TGI [1]: > 100 µM
- TGI [3]: > 100 µM
- TGI [6]: > 100 µM
- TGI [7]: > 100 µM
- TGI [8]: > 100 µM

Structure (SMILES): CCC1(CN(C)C)CC/C(=C\c2ccc(OC)c(OC)c2)C1=O (stereo not given)
- TGI [1]: > 100 µM
- TGI [2]: > 100 µM
- TGI [3]: > 100 µM
- TGI [4]: > 100 µM
- TGI [5]: > 100 µM
- TGI [6]: > 100 µM
- TGI [7]: > 100 µM
- TGI [8]: > 100 µM

Structure (SMILES): Cc1ccc(NC(=O)CCc2n[nH]c(=S)o2)cc1
- TGI [2]: > 100 µM
- TGI [3]: > 100 µM
- TGI [4]: > 100 µM
- TGI [5]: > 100 µM
- TGI [6]: > 100 µM
- TGI [7]: > 100 µM
- TGI [8]: > 100 µM

Structure (SMILES): N#Cc1cccc(C=NC23CC4CC(CC(C4)C2)C3)c1
- TGI [1]: > 100 µM
- TGI [2]: > 100 µM
- TGI [3]: > 100 µM
- TGI [4]: > 100 µM
- TGI [5]: > 100 µM
- TGI [6]: > 100 µM
- TGI [7]: > 100 µM
- TGI [8]: > 100 µM

Structure (SMILES): COc1cccc(N2C(=O)C3C4C=C5c6ccccc6N(c6ccccc6)C5(C3C2=O)[C@H]2C(=O)N(c3cccc(OC)c3)C(=O)[C@@H]42)c1 (stereo not given in full)
- TGI [1]: > 100 µM
- TGI [2]: > 100 µM
- TGI [3]: > 100 µM
- TGI [4]: > 100 µM
- TGI [5]: > 100 µM
- TGI [6]: > 100 µM
- TGI [7]: > 100 µM
- TGI [8]: > 100 µM

Structure (SMILES): CC([O-])=C1C(=O)c2ccccc2C1=O.CC([O-])=C1C(=O)c2ccccc2C1=O.CC[O-].CC[O-].[Ti+4]
- GI50 [1]: > 100 µM
- TGI [1]: > 100 µM
- GI50 [2]: > 100 µM
- TGI [2]: > 100 µM
- GI50 [3]: > 100 µM
- TGI [3]: > 100 µM
- GI50 [4]: > 100 µM
- TGI [4]: > 100 µM
- GI50 [5]: > 100 µM
- TGI [5]: > 100 µM
- GI50 [6]: > 100 µM
- TGI [6]: > 100 µM
- GI50 [7]: > 100 µM
- TGI [7]: > 100 µM
- GI50 [8]: > 100 µM
- TGI [8]: > 100 µM

Structure (SMILES): COC(=O)Cc1cc(=O)[nH]c2c1C(=O)CCC2
- TGI [1]: > 100 µM
- TGI [2]: > 100 µM
- TGI [3]: > 100 µM
- TGI [4]: > 100 µM
- TGI [5]: > 100 µM
- TGI [6]: > 100 µM
- TGI [7]: > 100 µM

Structure (SMILES): O=C1CCCCC12CCC/C2=N\O (stereo not given)
- TGI [1]: > 100 µM
- TGI [2]: > 100 µM
- TGI [4]: > 100 µM
- TGI [5]: > 100 µM
- TGI [6]: > 100 µM
- TGI [7]: > 100 µM
- TGI [8]: > 100 µM

Structure (SMILES): O=C1OC(=O)C2C3C=CC(C12)C1C2C=CC2C31 (stereo not given)
- TGI [1]: > 100 µM
- TGI [2]: > 100 µM
- TGI [3]: > 100 µM
- TGI [4]: > 100 µM
- TGI [5]: > 100 µM
- TGI [7]: > 100 µM

Structure (SMILES): O=C(NCCCl)SCCO
- TGI [1]: > 100 µM
- TGI [2]: > 100 µM
- TGI [4]: > 100 µM
- TGI [5]: > 100 µM
- TGI [6]: > 100 µM
- TGI [7]: > 100 µM
- TGI [8]: > 100 µM

Structure (SMILES): N#CC1=C(O)NC(O)=C(C#N)C1c1ccc(C2C(C#N)=C(O)NC(O)=C2C#N)cc1
- TGI [1]: > 100 µM
- TGI [2]: > 100 µM
- TGI [4]: > 100 µM
- TGI [5]: > 100 µM
- TGI [6]: > 100 µM
- TGI [7]: > 100 µM
- TGI [8]: > 100 µM

Structure (SMILES): NC(=O)NC1C(C(=O)O)N(Cc2ccccc2)C(=O)N1Cc1ccccc1 (stereo not given)
- TGI [1]: > 100 µM
- TGI [2]: > 100 µM
- TGI [3]: > 100 µM
- TGI [4]: > 100 µM
- TGI [5]: > 100 µM
- TGI [6]: > 100 µM
- TGI [7]: > 100 µM
- TGI [8]: > 100 µM

Structure (SMILES): Cn1cc(C(=O)c2ccccc2)cc(C(=O)c2ccccc2)c1=O
- TGI [1]: > 100 µM
- TGI [2]: > 100 µM
- TGI [3]: > 100 µM
- TGI [4]: > 100 µM
- TGI [5]: > 100 µM
- TGI [6]: > 100 µM
- TGI [7]: > 100 µM
- TGI [8]: > 100 µM

Structure (SMILES): COCCOCCOCCOc1cccc2c1C(=O)c1cccc(OCCOCCOCCOC)c1C2=O
- TGI [3]: > 100 µM
- TGI [5]: > 100 µM
- TGI [6]: > 100 µM
- TGI [7]: > 100 µM
- TGI [8]: > 100 µM

Structure (SMILES): CC(=O)c1ccc(NC(=O)C(=O)C(C#N)CC(C)(C)C=O)cc1 (stereo not given)
- TGI [1]: > 100 µM
- TGI [2]: > 100 µM
- TGI [3]: > 100 µM
- TGI [4]: > 100 µM
- TGI [5]: > 100 µM
- TGI [6]: > 100 µM
- TGI [7]: > 100 µM
- TGI [8]: > 100 µM

Structure (SMILES): CCCCCCCCCCCc1c(O)c(=O)c2c(oc3c(=O)c(CCCCCCCCCCC)c(O)c(=O)c3n2-c2ccc(N(C)C)cc2)c1=O
- TGI [1]: 50.4 µM
- TGI [2]: 37.9 µM
- TGI [4]: 36.3 µM
- TGI [5]: 39.7 µM
- TGI [6]: 32.8 µM
- TGI [7]: 51.5 µM
- TGI [8]: 34.3 µM

Structure (SMILES): CC(=O)c1ccc(NC(=O)COC(=O)c2cccc3c(=O)c4ccccc4[nH]c23)cc1
- TGI [2]: > 100 µM
- TGI [3]: > 100 µM
- TGI [4]: 46.2 µM
- TGI [5]: 33.9 µM
- TGI [6]: > 100 µM
- TGI [7]: > 100 µM
- TGI [8]: > 100 µM
